Source: ChEMBL document CHEMBL4507268 (2021)

Experiments:
Settings in all cases: Compound concentration 1.0 uM
[1] = target: T1, Serine/threonine-protein kinase PLK4 (Homo sapiens) (UniProt O00444)
T1 sequence (whole entry): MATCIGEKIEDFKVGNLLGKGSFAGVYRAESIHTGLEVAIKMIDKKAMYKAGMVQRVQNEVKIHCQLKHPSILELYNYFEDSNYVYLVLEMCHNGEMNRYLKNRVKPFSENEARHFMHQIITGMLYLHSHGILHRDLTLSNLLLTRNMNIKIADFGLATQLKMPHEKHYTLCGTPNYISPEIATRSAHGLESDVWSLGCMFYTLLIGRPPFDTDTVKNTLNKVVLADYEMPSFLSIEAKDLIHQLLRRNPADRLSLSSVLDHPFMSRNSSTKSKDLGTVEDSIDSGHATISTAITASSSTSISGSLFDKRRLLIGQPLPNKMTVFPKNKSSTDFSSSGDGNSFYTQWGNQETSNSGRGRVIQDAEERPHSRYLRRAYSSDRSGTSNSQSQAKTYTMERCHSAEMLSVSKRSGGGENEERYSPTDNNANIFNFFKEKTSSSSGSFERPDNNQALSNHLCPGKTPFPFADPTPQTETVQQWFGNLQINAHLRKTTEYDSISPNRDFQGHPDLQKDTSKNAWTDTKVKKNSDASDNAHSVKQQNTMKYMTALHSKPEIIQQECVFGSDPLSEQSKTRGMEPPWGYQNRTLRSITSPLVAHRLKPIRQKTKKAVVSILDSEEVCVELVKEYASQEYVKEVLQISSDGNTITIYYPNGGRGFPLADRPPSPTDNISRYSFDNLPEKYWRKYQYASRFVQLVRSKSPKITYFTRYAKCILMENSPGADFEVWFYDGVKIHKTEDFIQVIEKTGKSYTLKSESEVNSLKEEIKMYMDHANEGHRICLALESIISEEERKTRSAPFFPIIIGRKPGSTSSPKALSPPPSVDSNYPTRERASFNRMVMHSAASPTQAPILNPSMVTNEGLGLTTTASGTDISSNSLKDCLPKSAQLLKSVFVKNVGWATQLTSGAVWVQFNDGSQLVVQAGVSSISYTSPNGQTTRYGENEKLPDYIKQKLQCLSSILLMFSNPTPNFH

[2] = target: Tyrosine-protein kinase Blk (Homo sapiens) (UniProt P51451)
[3] = target: MAP kinase-interacting serine/threonine-protein kinase 2 (Homo sapiens) (UniProt Q9HBH9)
[4] = target: Tyrosine-protein kinase Fer (Homo sapiens) (UniProt P16591)
[5] = target: ALK tyrosine kinase receptor (Homo sapiens) (UniProt Q9UM73)
[6] = target: T2, Serine/threonine-protein kinase ULK2 (Homo sapiens) (UniProt Q8IYT8)
T2 sequence (whole entry): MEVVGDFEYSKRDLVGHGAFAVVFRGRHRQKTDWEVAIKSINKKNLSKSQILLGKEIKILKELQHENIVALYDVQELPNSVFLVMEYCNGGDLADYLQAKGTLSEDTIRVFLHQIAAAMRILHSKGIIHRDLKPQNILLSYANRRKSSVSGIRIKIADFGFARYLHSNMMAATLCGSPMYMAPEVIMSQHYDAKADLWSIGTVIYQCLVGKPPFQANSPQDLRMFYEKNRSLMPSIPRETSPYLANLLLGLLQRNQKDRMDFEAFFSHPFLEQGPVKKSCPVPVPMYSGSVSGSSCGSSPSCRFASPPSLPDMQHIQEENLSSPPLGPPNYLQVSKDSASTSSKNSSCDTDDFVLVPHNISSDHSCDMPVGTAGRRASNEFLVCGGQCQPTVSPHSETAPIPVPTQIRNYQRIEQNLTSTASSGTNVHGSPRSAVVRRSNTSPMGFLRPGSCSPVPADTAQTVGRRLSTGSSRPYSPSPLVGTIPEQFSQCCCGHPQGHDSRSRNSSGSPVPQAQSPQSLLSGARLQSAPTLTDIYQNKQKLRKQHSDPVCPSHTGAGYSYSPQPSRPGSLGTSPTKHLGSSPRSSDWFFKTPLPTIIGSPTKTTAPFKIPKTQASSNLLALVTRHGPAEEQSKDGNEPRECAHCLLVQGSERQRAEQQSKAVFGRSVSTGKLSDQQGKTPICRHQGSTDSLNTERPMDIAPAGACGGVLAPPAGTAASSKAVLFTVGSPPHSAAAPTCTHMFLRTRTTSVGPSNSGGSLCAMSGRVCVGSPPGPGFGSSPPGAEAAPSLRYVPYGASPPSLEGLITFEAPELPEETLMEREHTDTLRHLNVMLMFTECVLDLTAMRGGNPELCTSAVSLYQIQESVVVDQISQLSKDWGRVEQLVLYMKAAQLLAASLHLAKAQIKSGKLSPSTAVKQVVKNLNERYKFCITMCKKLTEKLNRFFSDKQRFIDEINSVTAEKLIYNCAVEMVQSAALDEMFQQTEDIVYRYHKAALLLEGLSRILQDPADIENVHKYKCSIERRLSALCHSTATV

[7] = target: Serine/threonine-protein kinase 16 (Homo sapiens) (UniProt O75716)
[8] = target: Wee1-like protein kinase 2 (Homo sapiens) (UniProt P0C1S8)
[9] = target: T3, Mitogen-activated protein kinase kinase kinase 3 (Homo sapiens) (UniProt Q99759)
T3 sequence (whole entry): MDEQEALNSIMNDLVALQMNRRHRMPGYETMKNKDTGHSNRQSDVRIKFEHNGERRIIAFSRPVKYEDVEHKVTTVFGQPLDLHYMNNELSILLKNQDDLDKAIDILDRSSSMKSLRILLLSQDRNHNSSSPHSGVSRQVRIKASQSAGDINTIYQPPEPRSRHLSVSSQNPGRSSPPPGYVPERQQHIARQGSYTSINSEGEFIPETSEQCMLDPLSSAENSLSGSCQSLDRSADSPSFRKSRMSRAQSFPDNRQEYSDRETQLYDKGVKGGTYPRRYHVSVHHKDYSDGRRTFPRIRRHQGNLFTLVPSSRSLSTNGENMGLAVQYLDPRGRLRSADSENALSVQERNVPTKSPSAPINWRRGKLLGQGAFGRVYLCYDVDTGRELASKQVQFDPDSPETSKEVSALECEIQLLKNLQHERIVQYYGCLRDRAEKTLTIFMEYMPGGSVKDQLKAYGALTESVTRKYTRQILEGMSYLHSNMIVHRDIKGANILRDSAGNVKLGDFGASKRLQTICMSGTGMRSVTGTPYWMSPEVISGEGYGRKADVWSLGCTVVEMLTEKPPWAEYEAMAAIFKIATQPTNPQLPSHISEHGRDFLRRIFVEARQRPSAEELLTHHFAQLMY

[10] = target: Ephrin type-A receptor 7 (Homo sapiens) (UniProt Q15375)

Measured: % residual kinase activity

Sequence of Ephrin type-A receptor 7 (Homo sapiens) (Q15375 28-998 limits assumed): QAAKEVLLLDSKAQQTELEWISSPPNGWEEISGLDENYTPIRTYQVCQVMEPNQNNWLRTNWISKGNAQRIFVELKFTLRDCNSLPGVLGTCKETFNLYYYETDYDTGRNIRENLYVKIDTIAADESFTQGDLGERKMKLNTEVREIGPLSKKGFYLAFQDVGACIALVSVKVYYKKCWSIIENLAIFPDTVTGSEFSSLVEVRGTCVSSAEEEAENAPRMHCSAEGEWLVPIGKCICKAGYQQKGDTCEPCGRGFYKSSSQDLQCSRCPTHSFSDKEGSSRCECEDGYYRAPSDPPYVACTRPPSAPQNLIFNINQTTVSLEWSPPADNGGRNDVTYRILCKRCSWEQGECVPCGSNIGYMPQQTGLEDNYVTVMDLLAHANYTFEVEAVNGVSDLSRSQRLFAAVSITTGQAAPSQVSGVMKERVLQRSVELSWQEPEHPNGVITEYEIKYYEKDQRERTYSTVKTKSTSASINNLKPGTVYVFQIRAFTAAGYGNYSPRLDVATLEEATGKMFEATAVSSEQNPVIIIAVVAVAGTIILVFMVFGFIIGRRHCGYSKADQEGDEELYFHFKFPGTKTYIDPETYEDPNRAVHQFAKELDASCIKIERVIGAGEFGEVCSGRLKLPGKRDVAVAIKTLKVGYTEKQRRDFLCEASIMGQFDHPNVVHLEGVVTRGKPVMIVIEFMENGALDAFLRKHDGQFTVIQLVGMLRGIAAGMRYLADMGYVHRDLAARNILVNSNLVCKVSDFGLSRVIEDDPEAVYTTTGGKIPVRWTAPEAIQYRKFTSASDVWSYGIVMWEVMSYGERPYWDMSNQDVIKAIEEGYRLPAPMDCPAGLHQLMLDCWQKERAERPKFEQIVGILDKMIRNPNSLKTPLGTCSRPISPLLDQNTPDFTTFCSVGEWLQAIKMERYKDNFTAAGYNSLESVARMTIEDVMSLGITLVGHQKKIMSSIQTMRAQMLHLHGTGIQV
Sequence of Tyrosine-protein kinase Blk (Homo sapiens) (P51451 2-505 limits assumed): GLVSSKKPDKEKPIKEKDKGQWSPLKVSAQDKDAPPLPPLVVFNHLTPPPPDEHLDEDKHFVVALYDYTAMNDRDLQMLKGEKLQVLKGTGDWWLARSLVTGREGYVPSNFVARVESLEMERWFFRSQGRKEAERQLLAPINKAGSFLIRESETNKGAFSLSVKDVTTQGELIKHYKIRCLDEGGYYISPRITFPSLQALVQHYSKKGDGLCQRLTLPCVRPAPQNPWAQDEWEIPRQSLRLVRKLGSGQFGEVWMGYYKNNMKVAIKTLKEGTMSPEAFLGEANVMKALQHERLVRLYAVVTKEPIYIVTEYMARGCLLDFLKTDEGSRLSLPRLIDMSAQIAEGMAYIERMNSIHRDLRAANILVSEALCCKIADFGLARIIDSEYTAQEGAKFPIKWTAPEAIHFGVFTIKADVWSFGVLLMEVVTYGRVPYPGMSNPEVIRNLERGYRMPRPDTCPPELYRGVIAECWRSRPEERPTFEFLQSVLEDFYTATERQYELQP
Sequence of ALK tyrosine kinase receptor (Homo sapiens) (Q9UM73 19-1620 limits assumed): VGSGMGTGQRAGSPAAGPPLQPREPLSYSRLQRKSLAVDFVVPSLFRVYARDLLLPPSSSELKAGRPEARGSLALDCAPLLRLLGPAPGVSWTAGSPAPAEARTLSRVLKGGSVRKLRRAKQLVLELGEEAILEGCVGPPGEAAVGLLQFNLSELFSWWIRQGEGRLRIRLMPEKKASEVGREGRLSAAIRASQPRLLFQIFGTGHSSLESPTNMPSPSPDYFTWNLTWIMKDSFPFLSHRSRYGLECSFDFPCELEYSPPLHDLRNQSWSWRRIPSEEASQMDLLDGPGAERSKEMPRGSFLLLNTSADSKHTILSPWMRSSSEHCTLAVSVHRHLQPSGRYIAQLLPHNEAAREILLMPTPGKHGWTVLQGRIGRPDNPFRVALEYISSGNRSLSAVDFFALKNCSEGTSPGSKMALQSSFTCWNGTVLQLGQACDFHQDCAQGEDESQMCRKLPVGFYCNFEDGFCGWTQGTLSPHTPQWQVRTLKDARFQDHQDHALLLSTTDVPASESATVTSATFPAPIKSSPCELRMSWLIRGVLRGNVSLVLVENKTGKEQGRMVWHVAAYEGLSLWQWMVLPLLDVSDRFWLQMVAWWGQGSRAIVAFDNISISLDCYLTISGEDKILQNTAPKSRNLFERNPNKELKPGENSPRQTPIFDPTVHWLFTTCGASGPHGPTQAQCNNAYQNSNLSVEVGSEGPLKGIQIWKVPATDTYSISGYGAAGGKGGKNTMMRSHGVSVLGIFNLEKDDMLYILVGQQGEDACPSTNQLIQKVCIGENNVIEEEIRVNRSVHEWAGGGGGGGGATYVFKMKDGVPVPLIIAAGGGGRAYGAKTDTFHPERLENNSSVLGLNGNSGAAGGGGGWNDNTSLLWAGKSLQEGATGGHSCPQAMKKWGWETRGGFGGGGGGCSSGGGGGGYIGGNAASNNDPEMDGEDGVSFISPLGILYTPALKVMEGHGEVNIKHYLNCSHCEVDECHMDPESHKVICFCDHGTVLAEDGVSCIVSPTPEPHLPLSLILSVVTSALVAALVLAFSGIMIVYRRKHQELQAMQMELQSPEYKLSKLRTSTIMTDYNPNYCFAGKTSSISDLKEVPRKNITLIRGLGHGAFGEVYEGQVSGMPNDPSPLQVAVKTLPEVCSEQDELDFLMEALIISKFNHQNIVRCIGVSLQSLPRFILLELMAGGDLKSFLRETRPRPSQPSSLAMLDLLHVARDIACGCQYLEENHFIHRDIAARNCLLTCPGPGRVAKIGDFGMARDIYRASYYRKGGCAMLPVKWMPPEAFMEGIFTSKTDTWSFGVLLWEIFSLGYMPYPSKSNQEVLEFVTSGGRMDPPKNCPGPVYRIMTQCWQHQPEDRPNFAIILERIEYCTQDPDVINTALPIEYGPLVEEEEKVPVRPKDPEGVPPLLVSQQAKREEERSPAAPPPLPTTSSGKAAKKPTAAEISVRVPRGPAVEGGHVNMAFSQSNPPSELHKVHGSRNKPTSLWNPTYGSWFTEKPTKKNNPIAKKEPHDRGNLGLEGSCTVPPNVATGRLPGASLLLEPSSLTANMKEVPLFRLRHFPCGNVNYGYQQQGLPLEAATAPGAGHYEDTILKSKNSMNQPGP
Sequence of Tyrosine-protein kinase Fer (Homo sapiens) (P16591 whole entry, looked up): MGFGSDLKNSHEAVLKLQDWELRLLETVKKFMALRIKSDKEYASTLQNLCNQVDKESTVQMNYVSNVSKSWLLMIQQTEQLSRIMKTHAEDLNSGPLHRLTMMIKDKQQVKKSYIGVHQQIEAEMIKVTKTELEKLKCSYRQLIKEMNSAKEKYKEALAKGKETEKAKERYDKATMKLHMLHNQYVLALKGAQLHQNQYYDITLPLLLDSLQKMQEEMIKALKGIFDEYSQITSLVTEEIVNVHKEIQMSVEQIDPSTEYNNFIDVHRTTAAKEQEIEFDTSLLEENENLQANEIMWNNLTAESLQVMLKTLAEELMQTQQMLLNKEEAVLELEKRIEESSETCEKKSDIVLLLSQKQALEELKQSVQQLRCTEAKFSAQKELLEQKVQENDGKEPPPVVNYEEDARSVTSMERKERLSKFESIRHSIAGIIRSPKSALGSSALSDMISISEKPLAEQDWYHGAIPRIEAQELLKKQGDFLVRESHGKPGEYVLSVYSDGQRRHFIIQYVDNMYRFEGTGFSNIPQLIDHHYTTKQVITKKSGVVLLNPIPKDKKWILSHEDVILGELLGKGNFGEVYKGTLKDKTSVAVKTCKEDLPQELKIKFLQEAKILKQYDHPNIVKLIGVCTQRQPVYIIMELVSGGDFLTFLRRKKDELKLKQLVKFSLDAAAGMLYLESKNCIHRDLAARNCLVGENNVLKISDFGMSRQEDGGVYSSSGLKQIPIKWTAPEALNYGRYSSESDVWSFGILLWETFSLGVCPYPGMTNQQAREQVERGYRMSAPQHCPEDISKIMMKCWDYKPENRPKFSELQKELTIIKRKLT
Sequence of Serine/threonine-protein kinase 16 (Homo sapiens) (O75716 whole entry): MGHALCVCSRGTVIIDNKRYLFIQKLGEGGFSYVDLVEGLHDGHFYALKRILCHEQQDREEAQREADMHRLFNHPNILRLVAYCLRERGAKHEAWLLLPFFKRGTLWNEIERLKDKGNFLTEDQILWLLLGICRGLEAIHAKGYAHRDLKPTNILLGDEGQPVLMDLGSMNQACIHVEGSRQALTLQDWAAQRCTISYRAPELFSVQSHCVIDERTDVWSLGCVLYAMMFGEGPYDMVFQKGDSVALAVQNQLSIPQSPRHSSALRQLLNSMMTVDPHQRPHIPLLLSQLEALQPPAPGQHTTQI
Sequence of MAP kinase-interacting serine/threonine-protein kinase 2 (Homo sapiens) (Q9HBH9 whole entry, looked up): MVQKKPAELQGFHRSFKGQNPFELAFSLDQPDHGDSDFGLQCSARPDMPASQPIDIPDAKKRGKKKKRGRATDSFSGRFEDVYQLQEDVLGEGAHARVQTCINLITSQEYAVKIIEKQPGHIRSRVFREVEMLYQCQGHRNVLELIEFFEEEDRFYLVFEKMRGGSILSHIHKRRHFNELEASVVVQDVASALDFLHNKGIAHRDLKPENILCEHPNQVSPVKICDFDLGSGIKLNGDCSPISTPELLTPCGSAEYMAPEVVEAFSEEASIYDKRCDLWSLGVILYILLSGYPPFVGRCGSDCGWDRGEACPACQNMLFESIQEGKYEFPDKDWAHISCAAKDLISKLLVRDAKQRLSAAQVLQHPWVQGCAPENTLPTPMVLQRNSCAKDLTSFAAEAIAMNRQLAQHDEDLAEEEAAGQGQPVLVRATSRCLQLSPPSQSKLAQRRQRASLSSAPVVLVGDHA

CN1CCN(c2cnc3c(C4CCN(C(=O)c5ccc(OC(F)(F)F)cc5N)CC4)ncnc3c2)CC1 [BAY-885]
inactive: [1] 88% | [2] 88% | [3] 99% | [4] 38% | [5] 121% | [6] 102% | [7] 99% | [8] 124% | [9] 94% | [10] 92%
